Experimental data reported in patent publication US20230029372A1, “THERAPEUTIC COMPOSITIONS AND METHODS FOR PREVENTION AND TREATMENT OF DIASTOLIC DYSFUNCTION” (AMBETEX PTY LTD, priority 2019, published 2023).
Entries after “also recorded” stand apart in the source; their conditions may differ.

Columns and labels:
Assay type in all cases: in vivo
plasma Aβ species = assay: PF06648671-High Fat Diet (HFD) treatment study: plasma Aβ species by ELISA; conditions: obese mice
Procedure: PF06648671-High Fat Diet (HFD) treatment study: At 12 weeks of age, mice (n=30) were placed on a HFD with 43% of calories from fat (23.5% by weight; SF04-001 High Fat Rodent Diet Based on D12451, Specialty Feeds, Glen Forrest, Wash.). After 13 weeks of the diet period, echocardiography was performed on all mice to obtain pre-drug treatment measures of cardiac function. Mice were allocated to treatment groups so that measures of cardiac function and morphology were matched as best as possible. PF06648671 (Medkoo Biosciences) was resuspended in 100% DMSO before being diluted in a hydroxypropyl cellulose solution to give a final solution containing lmg/mL PF06648671 in 10% hydroxypropyl cellulose and 5% DMSO. A vehicle solution containing 10% hydroxypropyl cellulose and 5% DMSO was also made. Aliquots of both drug and vehicle were stored at −80° C. until required. The HFD/PF06648671 group was administered 4 mg/kg of PF06648671 per day by oral gavage, while the HFD/control group received an equivalent volume of vehicle. Echocardiography was then performed following 4 weeks of the treatment period to obtain post-drug treatment measures of cardiac function. […] Plasma Aβ species were measured using high sensitivity ELISA kits (Wako Diagnostics) and plasma that was diluted 1:10 with assay buffer.

obese mice = assay: PF06648671-High Fat Diet (HFD) treatment study: echocardiography
Procedure: PF06648671-High Fat Diet (HFD) treatment study: At 12 weeks of age, mice (n=30) were placed on a HFD with 43% of calories from fat (23.5% by weight; SF04-001 High Fat Rodent Diet Based on D12451, Specialty Feeds, Glen Forrest, Wash.). After 13 weeks of the diet period, echocardiography was performed on all mice to obtain pre-drug treatment measures of cardiac function. Mice were allocated to treatment groups so that measures of cardiac function and morphology were matched as best as possible. PF06648671 (Medkoo Biosciences) was resuspended in 100% DMSO before being diluted in a hydroxypropyl cellulose solution to give a final solution containing lmg/mL PF06648671 in 10% hydroxypropyl cellulose and 5% DMSO. A vehicle solution containing 10% hydroxypropyl cellulose and 5% DMSO was also made. Aliquots of both drug and vehicle were stored at −80° C. until required. The HFD/PF06648671 group was administered 4 mg/kg of PF06648671 per day by oral gavage, while the HFD/control group received an equivalent volume of vehicle. Echocardiography was then performed following 4 weeks of the treatment period to obtain post-drug treatment measures of cardiac function. Following 5 weeks of the drug administration, mice were humanely killed via cervical dislocation and blood was immediately obtained via cardiac puncture and stored in a heparinised tube. The heart, epididymal fat pad, mesenteric fat pad, liver, quadricep, hind limb and brain were then immediately dissected. The heart was blotted prior to being weighed and all tissues were snap frozen in liquid nitrogen and stored at −80° C. Plasma Aβ species were measured using high sensitivity ELISA kits (Wako Diagnostics) and plasma that was diluted 1:10 with assay buffer.

Male C57BL6 mice [1] = assay: Aβ40 administration study: plasma Aβ40 and echocardiography; conditions: 1 μg/day i.p.
Procedure: Aβ40 administration study: Lyophilised recombinant Aβ40 (Millipore) and scrambled control peptide (ScrAβ40; Millipore) were resuspended in 1% NH4OH and aliquoted at 200 ng/ml in H2O and stored at −80° C. for no longer than 4 weeks. Male C57BL6 mice were obtained from the Animal Resource Centre (Perth, Wash.) at 4 weeks of age and housed with 4 mice per cage on a 12 hr light/dark cycle at a temperature of 22° C. and a constant humidity with a normal rodent diet. At 12 weeks of age, mice were grouped according to body mass and composition, determined by EchoMRI. Mice were then administered 1 μg of recombinant Aβ40 or ScrAβ40 (n=12/group per cohort) by i.p. injection once/day for 5 wks. After 4 weeks of peptide administration, cardiac function was assessed by echocardiography as follows. Mice were anaesthetised with inhalation of 1.5% isoflurane anaesthesia and echocardiography was performed using the Phillips HD15 diagnostic ultrasound system with a 15 MHz linear-array transducer by an experienced veterinarian. The velocity of blood flow through the mitral valve was analysed using Doppler mode imaging. […] Doppler imaging was also utilised to measure the velocity of blood flow through the aortic valve. The measurements were then used to calculate the ejection time, peak aortic flow and heart rate. M-mode imaging of the left ventricle was used to measure the thickness of the inter-ventricular septum (IVS), left ventricular internal diameter (LVID) and left ventricular posterior wall (LVPW) in both diastole (d) and end-systole (s) as well as systolic measures such as ejection fraction and fractional shortening. An estimation of LV mass was calculated from the m-mode imaging by using the formula (1.05[LVIDd+LVPWd+IVSd]^3−[LVIDd]^3) by Troy et al. (1972). Mice were humanely killed by cervical dislocation 1 week later. Blood was obtained immediately following by cardiac puncture and the heart, and other tissues were immediately removed. Hearts were washed in ice cold PBS and weighed prior to being snap frozen in liquid nitrogen. Plasma Aβ40 was measured using a high sensitivity ELISA kit (Wako Diagnostics) and plasma that was diluted 1:10 with assay buffer.

Male C57BL6 mice [2] = assay: Aβ42 administration study: plasma Aβ42, body measures, GTT with glucose tracers, cardiac TAG, gene expression
Procedure: Male C57BL6 mice were obtained from the Animal Resource Centre (Perth, Wash.) at 4 weeks of age and housed with 4 mice per cage on a 12 hr light/dark cycle at a temperature of 22° C. and a constant humidity with a normal rodent diet. At 12 weeks of age, mice were grouped according to body mass and composition, determined by EchoMRI. […] An i.p. glucose tolerance test (GTT) was performed on the final treatment day following an overnight fast. Mice were administered 2 g/kg lean mass of glucose including radioactive glucose tracers, prepared as follows. 100 μl of 1 μCi/μl glucose analogue, [^3H]-2-deoxyglucose (2-DOG), and 500 μl of 200 μCi/mL U-^14C glucose were evaporated to dryness before redissolving the radioactive tracers in 1 mL of 50% glucose. This produced a 50% glucose solution containing 100 μCi/mL [^3H]-2-DOG and 100 μCi/mL U-^14C glucose. The tail tip of each mouse was cut off and the blood glucose concentration of a blood sample was measured using an AccuCheck II glucometer (Roche). The GTT was initiated via intraperitoneal injection of the radiolabelled glucose solution (2 g/kg body weight, 10 uCi/animal) into the overnight-fasted mice. Further blood samples were taken at 15, 30, 45, 60 and 90 minutes after the injection for the measurement of blood glucose. Blood samples (30 μl) were also taken from the tail tip at each time point and diluted in 100 μl of saline. These samples were then centrifuged and the supernatant collected. 50 μl of the supernatant was diluted in 500 μl of distilled water and then suspended in 4 mL of Ultima Gold XR scintillation fluid (Packard Bioscience). Blood radioactivity was determined at each time point by performing liquid scintillation counting on each solution using the Beckman scintillation counter (LS6000 SC). At the conclusion of the GTT, mice were killed via cervical dislocation. Blood was obtained immediately following by cardiac puncture and the heart, and other tissues were immediately removed. Hearts were washed in ice cold PBS and weighed prior to being snap frozen in liquid nitrogen. The heart (30 mg), epididymal fat pad (30 mg and quadriceps skeletal muscle (30 mg) were homogenised in 1.5 ml of distilled water. The homogenate was centrifuged at 3000 rpm for 10 min at 4° C. 400 μl of the supernatant was diluted into 1.6 mL of distilled water and then suspended in 14 mL of Ultima Gold XR scintillation fluid (Packard Bioscience). The radioactivity of each sample (from both [^3H]-2-DOG6P and [^3H]-2-DOG) was determined by liquid scintillation counting using the Beckman scintillation counter (LS6000 SC). The ^3H radioactivity was used to measure glucose uptake into each tissue.
To determine the incorporation of U-^14C glucose into triglyceride and the total triglyceride content in the heart, an extraction of triglyceride was carried out using a chloroform/methanol mixture. Samples of heart (30 mg) were hand-homogenised in 2 mL of chloroform/methanol (2:1) and the homogeniser rinsed in a further 2 mL of chloroform/methanol (2:1), and the washings being added to the original extract in 10 mL tubes. The tubes were tightly capped and mixed on a rotator overnight to maximise extraction of the triglycerides. 2 ml of 0.6% saline was then added, to facilitate the separation of the organic and aqueous phases, after which the tubes were mixed thoroughly and then centrifuged at 2000 rpm for 10 minutes. The lower chloroform phase (containing triglycerides) was collected and evaporated to dryness under nitrogen at 45° C. The dried extract was then re-dissolved in 250 μl of 100% ethanol, to redissolve the lipid and enable aliquots to dispensed for assay. The amount of U-^14C glucose clearance into the lipid fraction was measured by suspending 100 μl of the triglyceride solution in 5 mL of Ultima Gold XR scintillation fluid (Packard Bioscience), followed by scintillation counting using the Beckman scintillation counter (LS6000 SC).

Male C57BL6 mice [3] = assay: Aβ42 administration study: cardiac function by echocardiography
Procedure: After 4 weeks of peptide administration, cardiac function was assessed by echocardiography as follows. Mice were anaesthetised with inhalation of 1.5% isoflurane anaesthesia and echocardiography was performed using the Phillips HD15 diagnostic ultrasound system with a 15 MHz linear-array transducer by an experienced veterinarian. The velocity of blood flow through the mitral valve was analysed using Doppler mode imaging. […] Doppler imaging was also utilised to measure the velocity of blood flow through the aortic valve. The measurements were then used to calculate the ejection time, peak aortic flow and heart rate. M-mode imaging of the left ventricle was used to measure the thickness of the inter-ventricular septum (IVS), left ventricular internal diameter (LVID) and left ventricular posterior wall (LVPW) in both diastole (d) and end-systole (s) as well as systolic measures such as ejection fraction and fractional shortening. An estimation of LV mass was calculated from the m-mode imaging by using the formula (1.05 [LVIDd+LVPWd+IVSd]^3−[LVIDd]^3) by Troy et al. (1972). Mice were humanely killed by cervical dislocation 1 week later. Blood was obtained immediately following by cardiac puncture and the heart, and other tissues were immediately removed. Hearts were washed in ice cold PBS and weighed prior to being snap frozen in liquid nitrogen.
Hearts were also collected for morphological analysis (FIG. 2).

[4] = GTT after five weeks of peptide, vs ScrAβ42

## Cc1cn(-c2ccc3n(c2=O)CCN([C@@H](C)[C@@H]2CC[C@H](c4cc(F)c(Cl)cc4C(F)(F)F)O2)C3=O)cn1 [PF06648671]
Plasma Aβ species; 4 mg/kg per day oral gavage (FIG. 7A)
  plasma Aβ40: decreased
Plasma Aβ species; 4 mg/kg per day oral gavage (FIG. 7B), 4 mg/kg/day
  plasma Aβ42: decreased; also recorded: reduced
Obese mice; obese mice (FIG. 7D)
  relative change in the E:A ratio, Vehicle vs PF06648671 groups: significantly different
Obese mice; obese mice, 4 mg/kg per day oral gavage, 4 weeks (FIG. 7C)
  E:A ratio Pre-treatment to Post-treatment: did not change; also recorded: prevented deterioration
Obese mice; obese mice, 4 mg/kg per day oral gavage, 4 weeks (FIG. 7D)
  E:A ratio relative to Pre-treatment values: 114%

## Aβ40: Lyophilised recombinant Aβ40 (Millipore)
Male C57BL6 mice [1]; 5 weeks (FIG. 6B)
  E:A ratio: did not have any effect
Male C57BL6 mice [1]; 5 weeks (FIG. 6C)
  DT: did not have any effect
Male C57BL6 mice [1]; 5 weeks (FIG. 6E)
  ejection fraction: nor any effect
Male C57BL6 mice [1]; 5 weeks (FIG. 6F)
  IVSd: no effect
Male C57BL6 mice [1]; 5 weeks (FIG. 6G)
  LVIDd: no effect
Male C57BL6 mice [1]; 5 weeks (FIG. 6H)
  LV mass: no effect
Male C57BL6 mice [1]; 5 weeks, vs ScrAβ40 (FIG. 6A)
  plasma Aβ40: significantly increased

## Aβ42: Lyophilised recombinant Aβ42 (Millipore)
Male C57BL6 mice [2]; 1 μg/day i.p., five weeks, compared with ScrAβ42 (FIG. 1A)
  increase in plasma Aβ42: approximately 3 fold
Male C57BL6 mice [2]; [4]
  plasma insulin throughout the GTT: no difference
  whole body glucose tolerance: no difference
Male C57BL6 mice [2]; heart, after five weeks of peptide (FIG. 1C)
  glucose incorporation into TAG (14C-glucose labelling): greater
Male C57BL6 mice [2]; heart, after five weeks of peptide (FIG. 1D)
  total TAG: increased
Male C57BL6 mice [2]; heart, after five weeks of peptide (FIG. 1E)
  cardiac gene expression (inflammation, endoplasmic reticulum stress): gene expression changes indicative of cardiac stress responses
Male C57BL6 mice [3]; Aβ42 vs ScrAβ42 (FIG. 2B)
  internal dimensions of the left ventricle (LVIDd): no effect
Male C57BL6 mice [3]; Aβ42 vs ScrAβ42 (FIG. 2D)
  deceleration time: increased
Male C57BL6 mice [3]; Aβ42 vs ScrAβ42 (FIG. 2E)
  E normalised by isovolumetric relaxation time (IVRT): no significant difference
Male C57BL6 mice [3]; Aβ42 vs ScrAβ42 (FIG. 2F)
  fractional shortening: reduced
Male C57BL6 mice [3]; Aβ42 vs ScrAβ42 (FIG. 2G)
  ejection fraction: reduced
Male C57BL6 mice [3]; Aβ42 vs ScrAβ42, five weeks (FIG. 2A)
  gross heart weight: no effect
